From patent US20050080260A1, “Preparation of prodrugs for selective drug delivery” (priority 2003, published 2005) come the findings set out here.

Data set [1] in a line: Toxicity on replicate uninfected macrophage plates (MTS cell viability). Format: cell-based, human. The note with it: human, uninfected macrophages, MTS, read-out: TC50 (50% cytotoxicity). The procedure:
(§1) Evaluation of Prodrug Anti-HIV-1 Potency in Macrophage Assay. The anti HIV-1 evaluation of the carriers and their conjugates was performed in 6-day old monocyte/macrophages at Southern Research Institute, Frederick, Md. Briefly, peripheral blood monocytes were isolated from normal HIV-1 negative donors by plastic adherence following ficoll hypaque purification of the buffy coats. The monocytes were then cultured for 6 days to a macrophage-like phenotype. The test compounds were serially diluted and added to the cultures followed by the addition of a pretitered amount of the Ba-L strain of HIV-1 obtained from the NIAID AIDS Research and Reference Reagent Repository. Cultures were washed by media removal 24 hours post infection, fresh compound added and the cultures continued for an additional 6 days. HIV p24 antigen content to assess virus replication was measured by p24 ELISA assay. AZT and ddc were used as positive control compounds and run in parallel with each determination. […] At assay termination, the assay plates were stained with the tetrazolium based dye MTS to determine cell viability and quantify compound toxicity. Using a computer program at Southern Research Institute, IC50 (50% inhibition of virus replication), TC50 (50% cytotoxicity) and a therapeutic index (TI, […]) were obtained.

A further data set has as its system monocyte/macrophages. The data set is described as above. The data set is classed as cell-based, human. As to conditions: Southern Research Institute tests, TABLES 7-9. The procedure:
as §1

The next data set relates to Ba-L strain of HIV-1. Kind of data set: Anti-HIV-1 potency in macrophage assay (p24 ELISA). Format: cell-based, HIV-1 in human monocyte/macrophages. The note with it: for IC50: Human immunodeficiency virus 1, BAL, Macrophage. Here is the method:
as §1

The test system of data set [2] is Friends Leukemia Virus (FLV). Description: Anti-retroviral potency in a murine model (FLV-infected mice, spleen and body weight). Format: in vivo, Swiss mice. As to conditions: for Average Final Weight / Average Weight Change / Average Spleen Weight: FLV-infected four-week old Swiss mice, 300 nanomoles on days 5-9, sacrificed day 12; for Average Spleen Weight: p < 0.01 for MTLJ-1-Foscarnet; for weight gain: FLV-infected mice, treated group. Here is the method:
(§2) Evaluation Foscarnet Prodrug Anti-Retroviral Potency in a Murine Model. The effect of prodrug MTLJ-1-Foscarnet on four-week old Swiss mice infected with Friends Leukemia Virus (FLV) was tested by the Luminide Pharmaceutical Corporation. The mice were infected with FLV by an IP injection with 0.5 ml viral solution prepared by resuspending F4-6 cells (1×10^6 cells/ml) in fresh media and harvesting that media 24 hr later and filtering through a […] filter. The Foscarnet Group received 300 nanomoles of Foscarnet on days 5-9. The Carrier Group received 300 nanomoles of carrier on days 5-9. The MTLJ-1-Foscarnet Group received 300 nanomoles of MTLJ-1-Foscarnet on days 5-9. All mice were sacrificed on day 12. The spleens were removed and weighed. The toxicity of the carrier MTLJ-1 was also evaluated by the determination of its LD50.

Data set [3] is described as follows: Acute toxicity, determination of LD50. Format: in vivo. The procedure: as §2
The mark [4] stands for this setting: TABLE 9 (6a carrier and Foscarnet prodrug).
Setting [5] is: TABLE 8 (6a carrier and ddc prodrug, Southern Research Institute), HIV-1 Ba-L, human macrophages, p24 antigen, read-out: IC50 (50% inhibition of virus replication).
Where [6] appears, read: TABLE 9 (6a carrier and Foscarnet prodrug, Southern Research Institute), HIV-1 Ba-L, human macrophages, p24 antigen, read-out: IC50 (50% inhibition of virus replication).
Where [7] appears, read: TABLE 10, Southern Research Institute under NIH contract, HIV-1 in human macrophages, read-out: IC50.
[8] abbreviates: TABLE 10, Southern Research Institute under NIH contract.
The mark [9] stands for this setting: TABLE 7 (negative control carrier test).
Setting [10] is: TABLE 7 (negative control carrier test, Southern Research Institute), HIV-1 Ba-L, human macrophages, p24 antigen, read-out: IC50 (50% inhibition of virus replication).

Like-named read-outs stand apart in the source and are kept apart here. Marks after values point to notes of the source that are not given here.

`CCN(c1ccc(/C(=C/C=C/C(=C2C=CC(=[N+](CC)c3ccc4c(=O)[nH][nH]c(=O)c4c3)C=C2)c2ccc(N(C)C)cc2)c2ccc(N(C)C)cc2)cc1)c1ccc2c(=O)[nH][nH]c(=O)c2c1` [6a]: the CC50 at 7 days in data set [1] (TABLE 8 (6a carrier and ddc prodrug)) was > 100 µM; in data set [1] (setting [4]), > 104 µM. For the same compound, the “Toxicity in macrophage assay (in words)” value in the data set on monocyte/macrophages is given as “nontoxic”. Also, the IC50 with Ba-L strain of HIV-1 (setting [5]) is > 100 µM; in the data set with Ba-L strain of HIV-1 (setting [6]), 23.1 µM; in the data set with Ba-L strain of HIV-1 (setting [7]) it was 2.62 µM. In addition, the figures for the “TI (TC50/IC50)” value in the data set on Ba-L strain of HIV-1 (setting [4]) and with Ba-L strain of HIV-1 (setting [8]) were >4.48 and >38.2, respectively.
As for `O=C([O-])P(=O)([O-])[O-].[Na+].[Na+].[Na+]` [Foscarnet, phosphonoformate, reference compound], the CC50 at 7 days in data set [1] (setting [9]) was > 10 µM. Besides, the CC50 at 7 days in data set [1] (setting [4]) is > 333 µM. Moreover, the IC50 in the data set on Ba-L strain of HIV-1 (setting [10]) was 0.55 µM. Moreover, the IC50 in the data set on Ba-L strain of HIV-1 (setting [6]) was 1.83 µM. In the data set with Ba-L strain of HIV-1 (setting [9]), the “TI (TC50/IC50)” value is on record as >18. The “TI (TC50/IC50)” value in the data set with Ba-L strain of HIV-1 (setting [4]) is >182.08. Also, in data set [2], the “Average Final Weight” value stood at 18.9 g, the “Average Weight Change” value is listed as “+1.5 g”, the “Average Spleen Weight” value worked out at 0.1727 g and the weight gain is 1.5 grams.
Consider `CCN(c1ccc(/C(=C/C=C/C(=C2C=CC(=[N+](CC)c3ccc4c(=O)[nH][nH]c(=O)c4c3)C=C2)c2ccccc2)c2ccccc2)cc1)c1ccc2c(=O)[nH][nH]c(=O)c2c1` [GZW1-98-2], for which the IC50 in the data set with Ba-L strain of HIV-1 (setting [7]) turned out to be 23.1 µM. Moreover, the “TI (TC50/IC50)” value in the data set on Ba-L strain of HIV-1 (setting [8]) is given as >4.3.
Turning to `CCN(c1ccc(/C(=C/C=C/C=C2C=CC(=[N+](C)C)C=C2)c2ccc(N(C)C)cc2)cc1)c1ccc2c(=O)[nH][nH]c(=O)c2c1` [GZW2-33-1], the IC50 in the data set on Ba-L strain of HIV-1 (setting [7]) is 18.9 µM. In the data set on Ba-L strain of HIV-1 (setting [8]), the “TI (TC50/IC50)” value is reported as >5.3.
`CCCC(NCCN(CC)c1ccc(/C(=C/C=C/C(OP(=O)(O)C(=O)O)(c2ccc(N(C)C)cc2)c2ccc(N(CC)CCNC(CCC)N(CC)c3ccc4c(=O)[nH][nH]c(=O)c4c3)cc2)c2ccc(N(C)C)cc2)cc1)N(CC)c1ccc2c(=O)[nH][nH]c(=O)c2c1` (stereo not drawn) [MTLJ-1-Foscarnet]: the “Toxicity in vivo (in words)” value in data set [3] (from LD50 and weight gain) is “nontoxic”. The LD50 in data set [3] (mouse, in vivo, ip) was > 1250 mg/kg. For the same compound, the “Spleen weights compared with control groups (in words)” value in data set [2] (FLV-infected Swiss mice) is “the same as those of the No Virus, No Treatment Group”. For the same compound, the “Suppression of FLV infection in mice (in words)” value in data set [2] (FLV-infected Swiss mice, significance level of 0.01, Students T test) is “highly effective”. Also, in data set [2], the “Average Final Weight” value is recorded as 22.4 g, the “Average Weight Change” value is “+2.5 g”, the “Average Spleen Weight” value is listed as 0.0914^a g and the weight gain was determined as 2.5 grams.
For the compound `CCCCc1ccc(C(/C=C/C=C(\c2ccc(CCCC)cc2)c2ccc(OCCN(CC)c3ccc4c(=O)[nH][nH]c(=O)c4c3)cc2)=C2C=CC(=[O+]CCN(CC)c3ccc4c(=O)[nH][nH]c(=O)c4c3)C=C2)cc1` [YY99811-1], the CC50 at 7 days in data set [1] (setting [9]) was > 10 µM. The “Toxicity in macrophage assay (in words)” value in the data set with monocyte/macrophages is on record as “nontoxic”. Moreover, the IC50 with Ba-L strain of HIV-1 (setting [10]) was > 10 µM.
As for `Nc1ccn([C@H]2CC[C@@H](CO)O2)c(=O)n1` [ddc, dideoxycytidine, reference compound], in the data set with Ba-L strain of HIV-1, the “TI (TC50/IC50)” value is recorded as >2,500. Further, the IC50 came to 0.07 µM with Ba-L strain of HIV-1 (setting [5]) and 0.04 µM in the data set with Ba-L strain of HIV-1 (setting [7]).
